Experimental data reported in patent US11865176B2, “Compositions and methods of modulating anti-tumor immunity” (Dana-Farber Cancer Institute, Inc., priority 2016, dated 2024).

Legend:
CDK4/6 = assay: Kinome profiling (KINOMEscan), selectivity; assay type: binding; details: compared with abemaciclib
Description: Palbociclib and abemaciclib were profiled by DiscoveRx using KINOMEscan (55). Briefly, the two compounds were tested at 100 nM and 1000 nM. Targeted kinases were visualized using the TREEspot™ compound profile visualization tool. Z'LYTE™ kinase assays were conducted for GSK3α and GSK3β at Life Technologies using Km ATP concentrations.

[1] = test system: patient-derived organotypic tumor spheroids (PDOTS); assay: Cytokine profiling of patient-derived organotypic tumor spheroids (PDOTS) in 3D microfluidic culture; assay type: cell-based, human; details: 100 nM; day 1 and day 3
Description: Experiments were performed as described (28). Briefly, fresh tumor specimens from human patients were received in media (DMEM) on ice and minced in 10 cm dishes (on ice) in a sterile field. S2 fractions (40-100 μm) were used for ex vivo culture as previously described (28). An aliquot of the S2 fraction was pelleted and re-suspended in type I rat-tail collagen (Corning, Corning, NY) and the spheroid-collagen mixture was then injected into the center gel region of the 3D microfluidic culture device. After 30 minutes at 37° C., collagen hydrogels containing PDOTS/MDOTS were hydrated with media with indicated treatments. MDOTS were treated with IgG isotype control (10 μg/mL, clone 2A3) or rat-α-mouse anti-PD-1 (10 μg/ml, clone RMP1-14, BioXCell). […]
Mouse lung broncho alveolar lavage (BAL) was performed by intracheal injection of 2 ml of sterile PBS followed by collection by aspiration. Cytokines were measured using 19-plex mouse magnetic Luminex kit (R&D systems), Mouse Cytokine 23-plex Assay (Bio-Rad) or Human Cytokine 40-plex Assay (Bio-Rad) and measured on Bio-Plex 200 system (Bio-Rad). […] Fold changes relative to the control were calculated and plotted as log 2FC. Lower and upper limits of quantitation (LLOQ/ULOQ) were derived from standard curves for cytokines above or below detection. […]

total splenocytes = assay: IFNγ production (ELISA) by splenocytes of mice treated in vivo; set-up: species or system mouse; details: tumor-bearing mice, 100 mg/kg IP
Description: FIG. 11. Tumor antigen experienced T cells are more sensitive to CDK4/6 inhibition. A. Naive C57BL/6 mice were treated with trilaciclib (100 mg/kg, IP) or vehicle for three days. Two and seven days after the final treatment, splenocytes were isolated and stimulated with α-CD3/CD28 antibodies for 72 hours to measure IFNγ production by ELISA. B. C57BL/6 mice were implanted with B16F10 tumor cells. Seven days post implantation mice were treated with trilaciclib (100 mg/kg, IP) or vehicle for 5 days. Five days post final treatment splenocytes were isolated and stimulated with α-CD3/CD28 antibodies for IFNγ production by ELISA. C. IL-2 production from Tconv (CD4^+CD25^−) cells after trilaciclib treatment. Tconv cells were isolated from either naive or tumor bearing (TMB) mice and treated with trilaciclib at indicated concentrations, in the presence of CD3 and CD28 antibodies. IL-2 production was determined 3 days after the treatment as percentage. (n=3) IFNγ production in CD8^+ T cells alone from naive or TMB mice after treatment with trilaciclib, as shown by percentage (D) or fold change (E). (n=3) F. Increased IFNγ production in CD8+ T cells by trilaciclib in the presence of Tregs. […] IFNγ production was determined 3 days after the treatment as shown as percentage. […]

[2] = test system: tumor infiltrating immune cells; assay: FACS analysis of lung tumor immune infiltrates, KP GEMM; assay type: in vivo, mouse
Source text: All animal studies were reviewed and approved by the Institutional Animal Care and Use Committee (IACUC) at the Dana-Farber Cancer Institute. The genetically engineered mouse model (GEMM) harboring a conditional activating mutation of endogenous Kras (Kras^LSL-G12D/+) crossed with p53 conditional knockout Trp53^fl/fl has been previously described (36). CRE recombinase was induced through intranasal inhalation of […] adeno-Cre (University of Iowa adenoviral core).
For drug treatment studies in GEMM models, mice were evaluated by MRI imaging to quantify lung tumor burden before and after drug treatment. Mice were treated with either vehicle, or 100 mg/kg trilaciclib or 100 mg/kg palbociclib daily by oral gavage.
Mice were sacrificed, and lungs were perfused using sterile PBS through heart perfusion from the left ventricle after BAL fluid collection. The whole lung was minced into small pieces and digested in collagenase D (Sigma) and Dnase I (Sigma) in Hank's Balanced Salt Solution (HBSS) at 37° C. for 30 min. […] Live cells were determined by LIVE/DEAD® fixable aqua dead cell stain kit (Molecular Probes). The cell pellets were re-suspended in PBS with 2% FBS for Fluorescence-activated cell sorting (FACS) analysis. […] Cells were imaged on BD LSRFortessa (BD Biosciences) and analyzed using FlowJo software (Tree Star).

[3] = test system: primary human CD4+ T cells; assay: IL2 ELISA, primary human CD4+ T cells; assay type: cell-based; details: α-CD3/CD28 and recombinant PD-L1 or control IgG; 100 nM (FIG. 1C)
Description: PD-1-overexpressing Jurkat cells as previously published (23) were stimulated with Dynabeads conjugated to α-CD3 (UCHT1), α-CD28 (28.2), and α-PD-1 (clone EH12 from Gordon Freeman) or control IgG at a 4:1 bead:cell ratio in the presence of 1 μM CDK4/6 inhibitor for 18 h. For primary human T cells, normal donor human blood was obtained through DFCI IRB Protocol 04-430. PBMC were isolated using a Ficoll-Paque density gradient, and purified populations of CD4+ T lymphocytes were obtained through a negative magnetic selection kit according to manufacturer's instructions (Miltenyi). […] IL-2 levels in the supernatant were analyzed by AlphaLISA (Perkin Elmers) according to the manufacturer's protocol.

In the case of CN1CCN(c2ccc(Nc3ncc4cc5n(c4n3)C3(CCCCC3)CNC5=O)nc2)CC1 [trilaciclib], the “selectivity for CDK4/6” value (CDK4/6) is reported as “significantly more selective for CDK4/6”, the “levels of Th1 cytokines (CXCL9, CXCL10, IFNγ, IL-16, CXCL16)” value [1] is reported as “increased levels of Th1 cytokines” and the “IFNγ secretion of total splenocytes” value (total splenocytes) is reported as “increased IFNγ secretion”. The “infiltration of CD4+ T cells and, to a lesser degree, CD8+ cells into lung tumors” value ([2]; KP mice, 100 mg/kg daily for 7 days) was “increased infiltration”, the “levels of PD-1 and CTLA-4 in CD4+ and CD8+ T cells” value ([2]; after treatment, to different extents) was “reduced” and the IL-2 secretion [3] was “enhanced IL-2 secretion”.
